Test results taken from publication PMC9569529, “Safe and Efficient Sigma1 Ligand: A Potential Drug Candidate for Multiple Sclerosis” (International Journal of Molecular Sciences, 2022).

Key:
CYP1A = target: T1, CYP1A (Homo sapiens, UniProt P05177); assay: CYP inhibition in human liver microsomes; format: in vitro ADME; settings: read-out: CYPs inhibition CYP1A
T1 construct: tissue Eurofins Cerep (CRO); host or cells: human liver microsomes
Method: (§1) The compound was classically evaluated at 10 µM for all the ADME analyses. Bidirectional permeability (apical A to basolateral B pH 6.5/7.4 and basolateral B to apical A pH 7.4/6.5) was assessed in the epithelial colorectal adenocarcinoma cell line (Caco-2 cell line). Results were expressed as × 10^−6cm/s (Papp) and as % recovery. Efflux ratio, i.e., Papp(B-A)/Papp(A-B), was calculated. Plasma protein binding was analyzed by HPLC-MS/MS after 4-h incubation at 37 °C, as described by Banker et al.. Concentration was evaluated by LC/MS-MS. CYP inhibition was performed in human liver microsomes as described in [61]. Analysis of the respective metabolites. was performed by HPLC-MS/MS. Transporter inhibition analysis was also performed in overexpressing cell lines. Respective metabolites for each specific transporter substrate were analyzed by fluorometry or scintillation counting and % inhibition of control values were calculated. P-glycoprotein transporter substrate assessment was performed by bidirectional permeability analysis (apical A to basolateral B pH 7.4/7.4 and basolateral B to apical A pH 7.4/7.4) in the Caco-2 cell line with and without verapamil, as described in [59]. Results were expressed as ×10^−6 cm/s (Papp) and as % recovery. The efflux ratio, i.e., Papp(B-A)/Papp(A-B), was calculated. CYP450 induction characterization was performed on human hepatocytes. The mRNA levels of 7 different CYPs were analyzed by qPCR, as described in [72]. The compound was evaluated at 1, 10 and 100 µM. Fold-induction values were determined and compared to cut-off values, as defined for each CYP isozyme in each hepatocyte lot.

CYP2C9 = target: T2, CYP2C9 (Homo sapiens, UniProt P11712); assay: CYP inhibition in human liver microsomes; format: in vitro ADME; settings: read-out: CYPs inhibition CYP2C9
T2 construct: tissue Eurofins Cerep (CRO); host or cells: human liver microsomes
T2 sequence (P11712 whole entry): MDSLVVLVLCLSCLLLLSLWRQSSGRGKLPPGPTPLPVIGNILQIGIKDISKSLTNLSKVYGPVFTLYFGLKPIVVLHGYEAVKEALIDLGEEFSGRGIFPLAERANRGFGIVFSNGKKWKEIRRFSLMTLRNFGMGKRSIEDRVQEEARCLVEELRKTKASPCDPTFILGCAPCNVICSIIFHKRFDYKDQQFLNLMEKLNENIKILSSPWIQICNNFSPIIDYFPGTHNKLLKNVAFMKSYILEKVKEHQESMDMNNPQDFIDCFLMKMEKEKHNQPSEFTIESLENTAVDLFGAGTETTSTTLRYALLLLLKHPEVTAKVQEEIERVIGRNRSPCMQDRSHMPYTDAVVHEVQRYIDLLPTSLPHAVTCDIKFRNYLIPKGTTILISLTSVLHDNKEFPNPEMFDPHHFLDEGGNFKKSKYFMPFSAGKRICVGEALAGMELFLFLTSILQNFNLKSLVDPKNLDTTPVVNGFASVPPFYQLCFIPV
Method: as §1

CYP3A = assay: CYP inhibition in human liver microsomes; format: in vitro ADME; settings: read-out: CYPs inhibition CYP3A
Method: as §1

CYP2C8 = target: T3, CYP2C8 (Homo sapiens, UniProt P10632); assay: CYP inhibition in human liver microsomes; format: in vitro ADME; settings: read-out: CYPs inhibition CYP2C8
T3 construct: tissue Eurofins Cerep (CRO); host or cells: human liver microsomes
T3 sequence (P10632 whole entry): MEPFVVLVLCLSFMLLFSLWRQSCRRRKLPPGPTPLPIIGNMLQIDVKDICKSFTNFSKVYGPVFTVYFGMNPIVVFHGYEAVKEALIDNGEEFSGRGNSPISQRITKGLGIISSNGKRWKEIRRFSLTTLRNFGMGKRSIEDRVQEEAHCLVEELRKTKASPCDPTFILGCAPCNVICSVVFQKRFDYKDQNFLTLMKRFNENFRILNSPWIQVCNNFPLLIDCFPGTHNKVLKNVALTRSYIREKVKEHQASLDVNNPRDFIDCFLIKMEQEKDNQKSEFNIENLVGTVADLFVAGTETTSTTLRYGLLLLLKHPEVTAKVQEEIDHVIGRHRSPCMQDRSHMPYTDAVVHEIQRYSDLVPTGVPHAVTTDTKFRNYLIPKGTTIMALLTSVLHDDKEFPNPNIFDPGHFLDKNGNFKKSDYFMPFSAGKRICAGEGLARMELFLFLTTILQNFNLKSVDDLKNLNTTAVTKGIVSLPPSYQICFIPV
Method: as §1

CYP2C19 = target: T4, CYP2C19 (Homo sapiens, UniProt P33261); assay: CYP inhibition in human liver microsomes; format: in vitro ADME; settings: read-out: CYPs inhibition CYP2C19
T4 construct: tissue Eurofins Cerep (CRO); host or cells: human liver microsomes
T4 sequence (P33261 whole entry): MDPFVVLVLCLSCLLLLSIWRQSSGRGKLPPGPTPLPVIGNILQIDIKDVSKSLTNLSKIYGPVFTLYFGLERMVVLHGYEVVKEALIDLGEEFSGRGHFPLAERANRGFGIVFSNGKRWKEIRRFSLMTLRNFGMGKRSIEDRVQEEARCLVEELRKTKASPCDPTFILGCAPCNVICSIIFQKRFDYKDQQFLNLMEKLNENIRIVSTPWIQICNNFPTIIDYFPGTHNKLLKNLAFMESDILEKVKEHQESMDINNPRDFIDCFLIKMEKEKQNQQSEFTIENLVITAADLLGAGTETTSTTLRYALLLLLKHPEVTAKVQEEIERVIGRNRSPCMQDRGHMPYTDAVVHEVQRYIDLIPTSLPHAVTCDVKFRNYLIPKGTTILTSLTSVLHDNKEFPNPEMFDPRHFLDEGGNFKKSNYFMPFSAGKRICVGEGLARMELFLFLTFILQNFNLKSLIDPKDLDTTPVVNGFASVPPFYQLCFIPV
Method: as §1

CYP2D6 = target: T5, CYP2D6 (Homo sapiens, UniProt P10635); assay: CYP inhibition in human liver microsomes; format: in vitro ADME; settings: read-out: CYPs inhibition CYP2D6
T5 construct: tissue Eurofins Cerep (CRO); host or cells: human liver microsomes
T5 sequence (P10635 whole entry): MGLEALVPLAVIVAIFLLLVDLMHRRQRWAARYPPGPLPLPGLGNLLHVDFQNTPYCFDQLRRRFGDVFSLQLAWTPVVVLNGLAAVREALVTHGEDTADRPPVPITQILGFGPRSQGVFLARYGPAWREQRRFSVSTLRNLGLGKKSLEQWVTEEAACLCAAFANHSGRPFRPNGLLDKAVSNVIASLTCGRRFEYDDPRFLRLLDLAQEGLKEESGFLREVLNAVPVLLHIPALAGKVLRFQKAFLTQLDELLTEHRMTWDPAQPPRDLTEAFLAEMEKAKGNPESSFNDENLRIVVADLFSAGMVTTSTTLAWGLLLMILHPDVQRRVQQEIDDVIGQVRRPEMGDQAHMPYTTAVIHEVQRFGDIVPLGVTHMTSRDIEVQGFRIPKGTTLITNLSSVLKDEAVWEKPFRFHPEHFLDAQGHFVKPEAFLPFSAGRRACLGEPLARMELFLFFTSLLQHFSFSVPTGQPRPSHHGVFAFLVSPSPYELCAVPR
Method: as §1

CYP2B6 = target: T6, CYP2B6 (Homo sapiens, UniProt P20813); assay: CYP inhibition in human liver microsomes; format: in vitro ADME; settings: read-out: CYPs inhibition CYP2B6
T6 construct: tissue Eurofins Cerep (CRO); host or cells: human liver microsomes
T6 sequence (P20813 whole entry): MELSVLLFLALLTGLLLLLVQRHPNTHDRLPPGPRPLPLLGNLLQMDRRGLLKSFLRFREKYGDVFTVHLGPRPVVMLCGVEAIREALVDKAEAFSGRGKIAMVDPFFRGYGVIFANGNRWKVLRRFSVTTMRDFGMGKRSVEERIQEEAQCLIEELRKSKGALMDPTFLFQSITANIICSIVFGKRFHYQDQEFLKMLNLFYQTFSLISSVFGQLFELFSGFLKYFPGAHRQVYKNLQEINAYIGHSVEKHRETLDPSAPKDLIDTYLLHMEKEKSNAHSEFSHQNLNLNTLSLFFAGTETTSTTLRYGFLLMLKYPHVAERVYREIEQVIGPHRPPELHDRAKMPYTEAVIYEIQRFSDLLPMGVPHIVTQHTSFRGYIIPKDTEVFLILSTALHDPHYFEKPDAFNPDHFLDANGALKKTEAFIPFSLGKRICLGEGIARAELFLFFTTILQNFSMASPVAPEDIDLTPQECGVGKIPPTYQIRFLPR
Method: as §1

[1] = Bidirectional permeability in Caco-2 (pH 6.5/7.4); format: in vitro ADME, human; settings: human; for Papp A→B at 10 µM: Caco-2, pH 6.5, Caco-2, 10 µM, read-out: Permeability A/B pH6.5/7.4; for efflux ratio at 10 µM: Caco-2, pH 6.5, Papp(B-A)/Papp(A-B), pH 6.5/7.4, read-out: e-ratio (efflux ratio); for Papp B→A at 10 µM: pH 6.5, Caco-2, 10 µM, read-out: Permeability B/A pH6.5/7.4
Method: as §1

Plasma protein binding = format: in vitro ADME; settings: 4-h incubation at 37 °C, read-out: PPB (converted)
Method: as §1, with “P-glycoprotein transporter substrate assessment was performed by bidirectional permeability analysis (apical A to basolateral B pH 7.4/7.4 and basolateral B to apical A pH 7.4/7.4) in the Caco-2 cell line with and without verapamil, as described in [59].” left out, “CYP450 induction characterization was performed on human hepatocytes.” left out

Plasma stability = format: in vitro ADME; settings: male, CD-1, mouse, 37 °C, read-out: Plasma t½ (converted)
Method: Plasma stability analyses were performed by M2SV (Lille, France). Incubations were performed in duplicate. The plasma (male mouse plasma CD-1, lithium-heparinized, from Sera Laboratories International Ltd. BioIVT, West Sussex, UK) was pre-incubated for 10 min at 37 °C before addition of the compound to a final concentration of 10 µM (0,1% DMSO). At the defined time points (0, 60, 1440 and 2880 min), fractions from each tube were transferred to fresh tubes containing cold CH3CN and an internal standard (Propanolol at 1 µM). After vigorous agitation and centrifugation (10 min at 10,000 rpm), the supernatants were analyzed. The degradation half-life (t1/2) values were calculated in minutes and hours via non-linear regression analysis using Microsoft® XLfit® Excel add-in from IDBS Ltd, Woking, UK.

[2] = Microsomal stability in human liver microsomes; format: in vitro ADME; settings: hLM; for half-life at 10 µM / microsomal CLint at 10 µM: human, liver microsomes
Method: Metabolic stability analysis (mouse and human liver microsomes) was performed by Eurofins Cerep (Poitiers, France) at 10 µM as described in [55]. Results were obtained at 15, 30, 45 and 60 min. Results were expressed as percent of the parent compound remaining, and calculated by comparing the peak area of the compound at the time point relative to that at time 0. The half-life (t1/2) and the apparent intrinsic clearance (CLint) were evaluated.
Metabolite identification was performed by HPLC-High Resolution mass spectrometry (MS). Chromatographic separation was performed on an Accela UPLC system (Thermo Fisher Scientific Inc. Waltham, MA, USA) equipped with an ACE 3 C18-AR column (100 × 2.1 mm, particle size 3 μm; AIT, Cormeilles-en-Parisis, France) preceded by a guard column (same stationary phase). The elution was performed with a gradient mode using water (solvent A) and ACN (solvent B), all acidified with 0.1% formic acid. The linear gradient elution program was as follows: 10% of B for 2 min; linear increase from 10 to 90% of solvent B for 20 min; 1 min at 90% of B; and 2 min of re-equilibration with 10% of B for a total run of 25 min. The LC flow rate was 400 µL/min and the injection volume was 10 μL. The column oven temperature was 30 °C and the sample tray temperature 4 °C. Eluted compounds were detected in positive mode by a full mass scan (m/z 200 to 500) using a Orbitrap Mass Spectrometer Exactive (Thermo Fisher Scientific Inc. Waltham, MA, USA) equipped with a heated electrospray ionization source (HESI-II). Instrument parameters were as follows: sheath gas 35, auxiliary gas 10 (both arbitrary units), spray voltage 2.4 kV, capillary temperature 275 °C, capillary voltage 67.5 V, tube lens voltage 120 V, skimmer voltage 24 V and source temperature 350 °C. Mass spectra were recorded at an ultra-high resolution (100,000). Instrument control, data acquisition and processing were performed using the associated Thermo Scientific software package (Xcalibur v.2.2 and Exactive v1.1).

T1 sequence (P05177 2-516 limits assumed): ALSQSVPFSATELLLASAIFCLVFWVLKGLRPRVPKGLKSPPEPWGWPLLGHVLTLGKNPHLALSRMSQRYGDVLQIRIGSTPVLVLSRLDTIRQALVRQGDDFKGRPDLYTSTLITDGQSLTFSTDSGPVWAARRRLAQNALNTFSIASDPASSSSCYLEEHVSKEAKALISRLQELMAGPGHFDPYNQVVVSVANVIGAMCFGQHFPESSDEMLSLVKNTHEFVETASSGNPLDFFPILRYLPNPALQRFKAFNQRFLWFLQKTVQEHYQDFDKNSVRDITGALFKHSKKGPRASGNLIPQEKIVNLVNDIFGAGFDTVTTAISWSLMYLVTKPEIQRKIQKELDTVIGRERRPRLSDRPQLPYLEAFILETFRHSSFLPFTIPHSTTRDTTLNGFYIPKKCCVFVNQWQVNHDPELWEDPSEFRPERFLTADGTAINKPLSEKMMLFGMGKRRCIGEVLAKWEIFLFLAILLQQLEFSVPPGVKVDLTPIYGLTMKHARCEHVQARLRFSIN

t1/2 ([2]; 10 µM) [h] | SMILES | inhibition at 10 µM (CYP1A) [%] | inhibition at 10 µM (CYP2C9) [%] | inhibition at 10 µM (CYP3A) [%] | inhibition at 10 µM (CYP2C8) [%] | inhibition at 10 µM (CYP2C19) [%] | inhibition at 10 µM (CYP2D6) [%] | inhibition at 10 µM (CYP2B6) [%] | Papp A→B at 10 µM [1] [×10⁻⁶ cm/s] | efflux ratio at 10 µM [1] | Papp B→A at 10 µM [1] [×10⁻⁶ cm/s] | fraction unbound at 4 h, 10 µM (Plasma protein binding) | half-life at 10 µM (Plasma stability) [h] | Compound Remaining (1 h, %) ([2]; 10 µM) [%] | half-life at 10 µM [2] [h] | microsomal CLint at 10 µM [2] [µL/min/mg]
10.0 | O=C(NCCCNCc1ccccc1)c1ccc(Cl)cc1 [compound 7i-deMe] | 9.4 | 5.9 | 3.2 | -7.2 | 18.4 | 91.6 | 15.9 | 31.1 | 1.7 | 51.5 | 0.19 | 23 | 83 | > 9 | < 115
 | CN(CCCNC(=O)c1ccc(Cl)cc1)Cc1ccccc1 [compound 7i] | 2.1 | -7.2 | 36.9 | -9.2 | 36.5 | 95.1 | -4.3 | ≤ 20 | ~2 | 66.1 | > 0.05 | > 24 | 66 | > 1 | < 115
